Literature values, collected in patent US6358944B1, “Methods and compositions for treating generalized anxiety disorder” (Vela Pharmaceuticals, Inc., priority 1999, dated 2002).

For `CN(C)CCC=C1c2ccccc2C=Cc2ccccc21` [cyclobenzaprine, 3-(5H-Dibenzo[a,d]cyclohepten-5-ylidene)-N,N-dimethyl-1-propanamine], the “other less common side effects” value (cyclobenzaprine treatment) is given as “nausea, tiredness, constipation, blurred vision, nervousness, confusion, abdominal pain and discomfort”, the principal side effects (cyclobenzaprine treatment) is given as “drowsiness, dry mouth or tongue, dizziness and bad taste” and the organ toxicity (cyclobenzaprine-treated patients at recommended doses) is given as “No indications of organ toxicity were found”. For the same compound, the “toxic effects after overdose” value (three individuals who ingested between 260 to 900 mg) was “Toxic effects were reported”.
